Test results published in US9718787B2, “Poly (ADP-ribose) polymerase inhibitor” (CHENGDU DI'AO PHARMACEUTICAL GROUP CO., LTD., priority 2011, dated 2017).
Values belong to the molecule of their own block, whether it stands above or below them.

Legend:
[1] = Pharmacokinetic test in male SD rats, tail vein injection; assay type: in vivo, rat; details: for AUC(0-t) / MRT / clearance / half-life / Vd: rat, plasma, iv, 15 mg/kg tail vein injection; for Vd: read-out: Vdss
Procedure: Male SD rats were used as experimental animals in this test. […] LC-MS/MS method was used to test blood drug concentration, and Winnonlin 6.1 software was used to calculate pharmacokinetic parameters to study and evaluate the pharmacokinetic properties.
12 male SD rats weighed 180-260 g, purchased from Vital River Laboratory Animal Technology Co., Ltd.
0.2 mL blood was collected through jugular vein before dosing and at 5 min, 15 min, 30 min, 1 h, 2 h, 4 h, 8 h, 12 h and 24 h after the dosing, respectively, and put into heparinized tubes. The samples were centrifuged for 10 min at 5500 rpm to separate plasma, and stored at −30° C.
(§1) An aliquot of 20 μL of plasma sample was added with 200 μL acetonitrile (containing 5.00 ng/mL verapamil and 50.0 ng/mL glibenclamide as internal standards). The mixture was vortexed for 4 min, and then centrifuged at 3700 rpm for 18 min. An aliquot of 70 μL supernatant was added into 70 μL water, and then vortexed for 4 min. Finally, 10 μL of the mixture was injected into the LC-MS/MS system for analysis.
as §1, with “30” for “20”, “150” for “200”, “5” for “4”
Winnonlin 6.1 software was used to calculate pharmacokinetic parameters.

[2] = test system: lung adenocarcinoma cell line SW-1271; assay: Cell proliferation inhibition assay, SW-1271 (Cell Titer-Glo, 5 days); assay type: cell-based; details: Homo sapiens, SW1271, 120 h; SW-1271, 5 days
Text: (§2) This assay was used to study the effect of PARP-1 inhibitor alone for tumor suppression. Breast cancer susceptibility genes BRCA1 and BRCA2 play an important role in homologous recombination DNA repair. BRCA-mutant (or deficient) cells represent homologous recombination repair defect, if PARP-mediated DNA repair is inhibited at the same time, DNA damage in cells may be increased, resulting in chromatin abnormality or even cell death.
(§3) BRCA-mutant (or deficient) human prostatic cancer cell line DU-145, lung adenocarcinoma cell line SW-1271, as well as breast cancer cell lines MDA-MB-436 and MDA-MB-361 were selected for the assay, PARP inhibitor was used alone to evaluate its damage effect on cells. The inhibition effect of the compound was expressed by IC50.
(§4) Prostatic cancer cell line DU-145 grown in EMEM supplement with 10% FBS was seeded in 96 well tissue culture plates (2000 cells/well). Lung adenocarcinoma cell line SW-1271 grown in L15 supplement with 10% FBS was seeded in 96 well tissue culture plates (4000 cells/well), and breast cancer cell line MDA-MB-361 grown in L15 supplement with 20% FBS was seeded in 96 well tissue culture plates (4000 cells/well). Test compounds (10 mM stock solution in DMSO) and reference compound staurosporine (1 mM stock solution in DMSO) were diluted by DMSO for 200 times to obtain the desired final concentration. 0.5 ul compound dilutions were directly added to the cells in 96 well plates, and the cells were incubated at 37° C. for 5 days. HPE control wells were added 1 uM staurosporine dilution, while ZPE wells were added 0.5% DMSO. After 5 days plates were equilibrated to room temperature and 50 ul of Cell Titer-Glo Reagent (Promega) was added to the culture wells. The plates were agitated briefly and luminescence signal was measured with Envision (PerkinElmer). […] IC50 values were calculated with Prism software (Graph Pad, San Diego, Calif., USA) for both test compounds and reference compound staurosporine.

[3] = test system: breast cancer cell line MDA-MB-361; assay: Cell proliferation inhibition assay, MDA-MB-361 (Cell Titer-Glo, 5 days); assay type: cell-based; details: Homo sapiens, 120 h; MDA-MB-361, 5 days; read-out: IC50 MD-MBA-361
Text: as §2, §3, §4

[4] = test system: prostatic cancer cell line DU-145; assay: Cell proliferation inhibition assay, DU-145 (Cell Titer-Glo, 5 days); assay type: cell-based; details: Homo sapiens, 120 h; DU-145, 5 days
[5] = test system: mice following a two hour occlusion of the MCA; details: intracerebroventricular administration; cited from earlier work
[6] = Solubility test (thermodynamic solubility in pH 7.4 phosphate buffer, HPLC); assay type: physicochemical
Procedure: In this test, excess amount of test sample was added into pH=7.4 phosphate buffer. Ultrasonic was performed for 30 min until the drug no longer dissolved. The solution was continuously shaked for 24 hours at a constant temperature of 25° C. to achieve a thermodynamic equilibrium of compound, and then the solution was filtrated to get filtrate. Quantitative analysis of compound in filtrate using external standard method is performed according to “Appendix VD High Performance Liquid Chromatography, Part II of Pharmacopeia 2010,” and the sample thermohynamic solubility in pH=7.4 phosphate buffer was determined.
Agilent 1200 LC, Phenomen C18 column (4.6 mm*150 mm, […]), mobile phase: methanol:water (60:40), flow rate: 1 mL/min, column temperature: 25° C., wave length: 230 nm, injection volume: 10 μL
About 30 mg test compound was put in a 10 mL volumetric flask, about 8 mL pH=7.4 phosphate buffer was added and ultrasonic was performed for 30 min, and the solution was shaked for 24 hours in a shaker at a constant temperature of 25° C. The solution was settled for half an hour under 25° C., filtered with 0.45 μm hydrophilic filter. The filtrate was used as test sample. […]
The test solution was injected for three times according to the above chromatographic conditions. The peak area was measured to calculate the corresponding concentration. […]

[7] = test system: rat model of focal cerebral ischemia; details: i.p. 10 mg/kg two hours prior to and two hours after initiation of ischemia; cited from earlier work

Structure (SMILES): O=C(c1cc(Cc2n[nH]c(=O)c3ccccc23)ccc1F)N1CCN(C(=O)C2CC2)CC1 [AZD-2281, olaparib]
- exposure ([1]; 15 mg/kg i.v.): low exposure
- metabolic stability ([1]; 15 mg/kg i.v.): poor metabolic stability
- AUC(0-t) [1]: 6440 ng·h/mL
- MRT [1]: 19.8 min
- clearance [1]: 39.1 mL/min/kg
- half-life [1]: 40.9 min
- Vd [1]: 0.766 L/kg
- IC50 [2]: 17400 nM
- IC50 [3]: > 10000 nM
- IC50 [4]: 65000 nM

Structure (SMILES): NC(=O)c1cccc(N)c1 [Compound 3-AB, 3-aminobenzamide]
- decrease in infarct volume [5]: 47%

Structure (SMILES): O=C(c1cc(Oc2n[nH]c(=O)c3ccccc23)ccc1F)N1CCN(C(=O)N2CCCCC2)CC1 [Compound 85, 4-(4-fluoro-3-(4-(piperidine-1-carbonyl)piperazine-1-carbonyl)phenoxy)-2H-phthalazin-1-one]
- IC50 [2]: 1500 nM
- IC50 [3]: 2400 nM
- IC50 [4]: 3700 nM

Structure (SMILES): O=C1NCCc2c(OCCCCN3CCCCC3)cccc21 [DPQ, 3,4-dihydro-5-[4-(1-piperidinyl)butoxy]-1 (2H)-isoquinolinone]
- reduction in infarct volume [7]: 54%

Now from value to molecule:

- IC50 [2]: 770 nM
- IC50 [3]: 1900 nM
Structure (SMILES): O=C(c1cc(Oc2n[nH]c(=O)c3ccccc23)ccc1F)N1CCN(C(=O)C2CCC(F)(F)CC2)CC1 [Compound 107, 4-(3-(4-(4,4-difluorocyclohexanecarbonyl)piperazine-1-carbonyl)-4-fluorophenoxy)2H-phthalazin-1-one]

- pharmacokinetic properties relative to AZD-2281 ([1]; 15 mg/kg i.v.): significantly superior to AZD-2281
- AUC(0-t) [1]: 10100 ng·h/mL
- MRT [1]: 22.4 min
- clearance [1]: 28 mL/min/kg
- half-life [1]: 185 min
- Vd [1]: 0.665 L/kg
- IC50 [2]: 1600 nM
- IC50 [4]: 2700 nM
- water solubility relative to AZD-2281 [6]: enhanced by almost twice
Structure (SMILES): CN(C)C1(C(=O)N2CCN(C(=O)c3cc(Oc4n[nH]c(=O)c5ccccc45)ccc3F)CC2)CC1 [Compound 124, 4-(3-(4-(1-(dimethylamino)cyclopropanecarbonyl)piperazine-1-carbonyl)-4-fluorophenoxy)2H-phthalazin-1-one]

- IC50 [2]: 1100 nM
- IC50 [3]: 4000 nM
- IC50 [4]: 1900 nM
Structure (SMILES): CN(C)C1(C(=O)N2CCN(C(=O)c3cc(Oc4n[nH]c(=O)c5ccccc45)ccc3F)CC2)CCC1 [Compound 126, 4-(3-(4-(1-(dimethylamino)cyclobutanecarbonyl)piperazine-1-carbonyl)-4-fluorophenoxy)2H-phthalazin-1-one]
